Measured values reported in ChEMBL document CHEMBL1201862, “PubChem BioAssay data set” (2004).
Active and inactive are the calls of the source.

Assays:
[1] = target: T1, Sentrin-specific protease 7 (Homo sapiens, UniProt Q9BQF6); assay type: functional;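 also: Luminescence-based dose-response confirmation of ultra-high-throughput screening hits, measuring inhibition of SENP7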
T1 sequence (Q9BQF6 whole entry): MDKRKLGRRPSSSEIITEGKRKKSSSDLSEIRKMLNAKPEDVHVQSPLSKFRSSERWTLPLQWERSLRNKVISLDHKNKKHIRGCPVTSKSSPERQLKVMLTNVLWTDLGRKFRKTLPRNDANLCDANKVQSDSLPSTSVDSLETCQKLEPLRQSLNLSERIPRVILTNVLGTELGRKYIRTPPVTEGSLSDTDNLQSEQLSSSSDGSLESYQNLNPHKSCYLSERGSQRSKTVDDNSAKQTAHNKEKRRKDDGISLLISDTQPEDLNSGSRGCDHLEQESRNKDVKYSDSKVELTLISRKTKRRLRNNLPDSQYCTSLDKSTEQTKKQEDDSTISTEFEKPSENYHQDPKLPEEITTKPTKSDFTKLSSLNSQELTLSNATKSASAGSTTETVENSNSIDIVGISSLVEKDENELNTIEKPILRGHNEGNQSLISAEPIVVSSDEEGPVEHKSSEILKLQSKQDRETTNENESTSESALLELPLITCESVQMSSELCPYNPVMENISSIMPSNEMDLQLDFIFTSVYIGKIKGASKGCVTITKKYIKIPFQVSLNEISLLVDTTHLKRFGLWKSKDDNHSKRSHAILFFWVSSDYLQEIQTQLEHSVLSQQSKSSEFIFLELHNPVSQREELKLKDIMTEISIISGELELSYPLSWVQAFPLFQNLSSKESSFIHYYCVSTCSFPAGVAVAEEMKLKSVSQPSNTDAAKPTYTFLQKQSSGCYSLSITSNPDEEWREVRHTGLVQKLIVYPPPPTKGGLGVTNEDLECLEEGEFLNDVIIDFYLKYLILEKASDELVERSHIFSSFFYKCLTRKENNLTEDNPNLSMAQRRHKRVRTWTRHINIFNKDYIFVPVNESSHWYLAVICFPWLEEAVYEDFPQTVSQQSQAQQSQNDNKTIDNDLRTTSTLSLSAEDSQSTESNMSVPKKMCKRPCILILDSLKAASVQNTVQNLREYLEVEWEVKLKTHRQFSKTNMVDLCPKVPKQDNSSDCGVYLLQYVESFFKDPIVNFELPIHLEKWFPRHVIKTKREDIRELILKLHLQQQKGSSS

[2] = target: T2, Caspase-3 (Homo sapiens, UniProt P42574); experiment: Dose-response confirmation of uHTS inhibitor hits of Sentrin-Specific Protease 8 in a Caspase-3 Fluorescence assay.; assay type: functional
T2 sequence (P42574 whole entry): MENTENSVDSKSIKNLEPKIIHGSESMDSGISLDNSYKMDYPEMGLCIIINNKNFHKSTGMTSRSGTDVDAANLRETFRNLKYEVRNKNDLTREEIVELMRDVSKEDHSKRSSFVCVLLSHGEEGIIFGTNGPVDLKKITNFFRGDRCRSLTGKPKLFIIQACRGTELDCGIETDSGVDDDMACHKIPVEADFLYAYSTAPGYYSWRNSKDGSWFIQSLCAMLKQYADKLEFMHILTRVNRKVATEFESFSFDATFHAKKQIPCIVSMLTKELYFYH

[3] = target: Serine/threonine-protein phosphatase PP1-alpha catalytic subunit (Homo sapiens, UniProt P62136); experiment: PP1 phosphatase inhibitors, dose response, biochemical, fluorescence (AID 2394)
[4] = target: T1, Sentrin-specific protease 7; experiment: SENP7 protease inhibitors, SAR follow-up, biochemical, luminescence (AID 504497); assay type: functional
[5] = target: Calcium/calmodulin-dependent protein kinase type II subunit gamma (Homo sapiens, UniProt Q13555); assay type: functional
Calcium/calmodulin-dependent protein kinase type II subunit gamma, sequence (Q13555 whole entry): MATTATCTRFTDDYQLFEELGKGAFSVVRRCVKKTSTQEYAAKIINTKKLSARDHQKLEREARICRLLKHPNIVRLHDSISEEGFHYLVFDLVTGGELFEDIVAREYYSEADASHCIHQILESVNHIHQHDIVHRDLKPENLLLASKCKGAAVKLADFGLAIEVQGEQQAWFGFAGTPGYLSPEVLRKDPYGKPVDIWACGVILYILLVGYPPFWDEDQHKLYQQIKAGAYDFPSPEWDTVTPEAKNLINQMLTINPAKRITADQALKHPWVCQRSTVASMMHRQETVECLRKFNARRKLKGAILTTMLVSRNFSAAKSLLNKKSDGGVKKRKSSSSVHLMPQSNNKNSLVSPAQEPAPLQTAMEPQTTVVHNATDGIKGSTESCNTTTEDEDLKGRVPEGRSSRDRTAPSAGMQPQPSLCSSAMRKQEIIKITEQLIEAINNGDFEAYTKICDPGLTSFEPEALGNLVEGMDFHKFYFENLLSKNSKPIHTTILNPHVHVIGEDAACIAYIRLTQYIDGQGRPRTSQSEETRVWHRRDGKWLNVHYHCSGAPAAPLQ

[6] = target: Serine/threonine-protein kinase PAK 4 (Homo sapiens, UniProt O96013); assay type: functional;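 also: value obtained within a kinome profiling panel in which PAK4 was one of the panel members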
[7] = target: Serine/threonine-protein kinase pim-1 (Homo sapiens, UniProt P11309); assay type: functional
Serine/threonine-protein kinase pim-1, sequence (P11309 whole entry): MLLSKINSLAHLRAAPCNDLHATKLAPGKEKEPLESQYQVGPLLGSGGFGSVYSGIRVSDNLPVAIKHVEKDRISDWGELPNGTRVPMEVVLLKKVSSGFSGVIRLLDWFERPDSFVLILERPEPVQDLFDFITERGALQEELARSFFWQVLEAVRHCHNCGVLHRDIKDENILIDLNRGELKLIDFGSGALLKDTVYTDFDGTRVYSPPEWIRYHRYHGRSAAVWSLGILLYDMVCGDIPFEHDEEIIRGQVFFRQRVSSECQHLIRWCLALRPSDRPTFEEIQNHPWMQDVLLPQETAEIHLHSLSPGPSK

[8] = target: Non-receptor tyrosine-protein kinase TYK2 (Homo sapiens, UniProt P29597); assay type: functional
[9] = target: Glycogen synthase kinase-3 beta (Homo sapiens, UniProt P49841); assay type: functional;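 also: value comes from a broad kinome profiling panel, with GSK3B as the panel member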
Glycogen synthase kinase-3 beta, sequence (P49841 whole entry, the tested form may be a part): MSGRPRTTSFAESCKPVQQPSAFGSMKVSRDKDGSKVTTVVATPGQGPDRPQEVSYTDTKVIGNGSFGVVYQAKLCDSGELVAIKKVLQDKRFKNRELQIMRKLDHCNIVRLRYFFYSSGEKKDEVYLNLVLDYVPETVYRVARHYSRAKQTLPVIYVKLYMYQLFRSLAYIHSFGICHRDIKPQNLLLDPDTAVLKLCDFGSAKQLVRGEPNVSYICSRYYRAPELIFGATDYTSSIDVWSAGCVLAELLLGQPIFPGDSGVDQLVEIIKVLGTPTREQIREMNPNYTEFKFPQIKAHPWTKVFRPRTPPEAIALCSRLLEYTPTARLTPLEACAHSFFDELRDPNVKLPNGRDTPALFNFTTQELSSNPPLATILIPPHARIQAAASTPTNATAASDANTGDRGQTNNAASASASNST

[10] = target: LIM domain kinase 1 (Homo sapiens, UniProt P53667); experiment: Navigating the Kinome. Panel member name: LIMK1; assay type: functional
LIM domain kinase 1, sequence (P53667 whole entry, the tested form may be a part): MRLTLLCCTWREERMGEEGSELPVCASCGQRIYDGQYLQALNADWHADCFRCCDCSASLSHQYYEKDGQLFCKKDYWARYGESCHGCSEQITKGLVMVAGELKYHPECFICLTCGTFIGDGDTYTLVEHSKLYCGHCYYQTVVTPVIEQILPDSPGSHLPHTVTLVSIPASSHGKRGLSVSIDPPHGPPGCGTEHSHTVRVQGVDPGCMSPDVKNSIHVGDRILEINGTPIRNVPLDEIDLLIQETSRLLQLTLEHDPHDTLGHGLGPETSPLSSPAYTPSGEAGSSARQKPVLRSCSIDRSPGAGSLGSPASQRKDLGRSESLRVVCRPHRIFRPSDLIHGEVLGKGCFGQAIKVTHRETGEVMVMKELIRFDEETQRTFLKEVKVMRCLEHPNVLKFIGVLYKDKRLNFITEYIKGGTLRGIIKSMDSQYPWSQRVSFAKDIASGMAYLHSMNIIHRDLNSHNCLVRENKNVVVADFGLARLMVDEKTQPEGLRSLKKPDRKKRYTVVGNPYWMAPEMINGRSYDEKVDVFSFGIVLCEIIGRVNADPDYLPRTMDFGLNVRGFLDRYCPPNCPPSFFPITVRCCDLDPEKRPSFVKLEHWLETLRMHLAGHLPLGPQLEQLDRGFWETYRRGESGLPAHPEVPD

[11] = target: Serine/threonine-protein kinase TAO1 (Homo sapiens, UniProt Q7L7X3); assay type: functional
[12] = target: Casein kinase I isoform delta (Homo sapiens, UniProt P48730); assay type: functional;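 also: measured as one member (CSNK1D) of a kinome panel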
[13] = target: Insulin-like growth factor 1 receptor (Homo sapiens, UniProt P08069); experiment: Navigating the Kinome. Panel member name: IGF1R; assay type: functional
[14] = target: Rho-associated protein kinase 1 (Homo sapiens, UniProt Q13464); assay type: functional;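 also: measured within a broad kinome-wide panel profiling many kinases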
Rho-associated protein kinase 1, sequence (Q13464 whole entry): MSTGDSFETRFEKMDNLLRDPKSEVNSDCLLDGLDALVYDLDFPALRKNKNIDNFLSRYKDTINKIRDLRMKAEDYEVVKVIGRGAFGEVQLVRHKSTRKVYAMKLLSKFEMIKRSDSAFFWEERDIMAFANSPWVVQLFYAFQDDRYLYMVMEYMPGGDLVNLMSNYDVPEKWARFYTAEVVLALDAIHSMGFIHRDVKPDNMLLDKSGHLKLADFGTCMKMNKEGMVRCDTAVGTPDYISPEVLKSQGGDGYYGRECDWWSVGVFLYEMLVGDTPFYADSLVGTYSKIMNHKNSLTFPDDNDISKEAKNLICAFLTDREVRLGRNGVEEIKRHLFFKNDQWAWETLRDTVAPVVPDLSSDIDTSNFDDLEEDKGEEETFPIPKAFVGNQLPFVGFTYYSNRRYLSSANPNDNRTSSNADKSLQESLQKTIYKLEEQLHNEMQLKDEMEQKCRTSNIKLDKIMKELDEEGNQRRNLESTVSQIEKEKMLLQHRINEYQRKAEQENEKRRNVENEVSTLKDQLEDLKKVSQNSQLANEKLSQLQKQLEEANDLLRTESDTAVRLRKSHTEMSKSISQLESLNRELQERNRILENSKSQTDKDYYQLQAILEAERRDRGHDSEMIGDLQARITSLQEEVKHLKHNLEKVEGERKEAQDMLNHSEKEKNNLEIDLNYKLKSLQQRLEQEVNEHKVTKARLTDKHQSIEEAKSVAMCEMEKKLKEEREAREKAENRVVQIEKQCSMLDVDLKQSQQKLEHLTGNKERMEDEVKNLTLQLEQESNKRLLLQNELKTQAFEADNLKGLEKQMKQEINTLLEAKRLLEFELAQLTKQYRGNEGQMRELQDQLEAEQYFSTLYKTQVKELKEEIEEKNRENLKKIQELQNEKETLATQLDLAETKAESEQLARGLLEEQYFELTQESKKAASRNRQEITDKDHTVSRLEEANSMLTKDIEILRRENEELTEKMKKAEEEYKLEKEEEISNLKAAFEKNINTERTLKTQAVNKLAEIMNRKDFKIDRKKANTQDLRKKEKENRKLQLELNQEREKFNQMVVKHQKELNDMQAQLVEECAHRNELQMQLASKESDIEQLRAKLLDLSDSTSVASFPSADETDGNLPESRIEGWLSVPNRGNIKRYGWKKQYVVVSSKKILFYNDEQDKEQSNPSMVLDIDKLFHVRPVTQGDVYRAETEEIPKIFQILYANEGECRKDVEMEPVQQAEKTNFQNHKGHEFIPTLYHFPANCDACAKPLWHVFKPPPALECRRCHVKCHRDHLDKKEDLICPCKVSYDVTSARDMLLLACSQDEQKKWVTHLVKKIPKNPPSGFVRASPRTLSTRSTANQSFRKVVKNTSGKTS

[15] = target: BDNF/NT-3 growth factors receptor (Homo sapiens, UniProt Q16620); assay type: functional;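 also: NTRK2 measured as one member of a broad kinome-wide kinase profiling panel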
[16] = target: Interleukin-1 receptor-associated kinase 1 (Homo sapiens, UniProt P51617); assay type: functional;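 also: IRAK1 tested as one member of a kinome panel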
[17] = target: Activated CDC42 kinase 1 (Homo sapiens, UniProt Q07912); experiment: Navigating the Kinome. Panel member name: ACK1; assay type: functional
[18] = target: Serine/threonine-protein kinase Chk2 (Homo sapiens, UniProt O96017); assay type: functional;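 also: CHEK2 entry within a kinome-wide screening panel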
Serine/threonine-protein kinase Chk2, sequence (O96017 whole entry): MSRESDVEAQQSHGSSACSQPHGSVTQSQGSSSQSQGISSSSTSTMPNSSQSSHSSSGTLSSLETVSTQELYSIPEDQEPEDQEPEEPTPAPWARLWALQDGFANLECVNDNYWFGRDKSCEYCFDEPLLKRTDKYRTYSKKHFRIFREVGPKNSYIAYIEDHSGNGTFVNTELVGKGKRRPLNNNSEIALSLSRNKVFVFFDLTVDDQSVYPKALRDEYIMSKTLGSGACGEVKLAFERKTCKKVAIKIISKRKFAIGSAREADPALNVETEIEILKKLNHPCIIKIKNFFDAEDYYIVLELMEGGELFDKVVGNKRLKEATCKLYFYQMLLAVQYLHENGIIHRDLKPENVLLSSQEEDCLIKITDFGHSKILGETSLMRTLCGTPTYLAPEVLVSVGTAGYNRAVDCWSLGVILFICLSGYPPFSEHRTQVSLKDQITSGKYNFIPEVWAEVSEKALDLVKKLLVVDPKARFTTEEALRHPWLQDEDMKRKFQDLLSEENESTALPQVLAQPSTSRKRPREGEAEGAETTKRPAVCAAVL

[19] = target: Tyrosine-protein kinase Fyn (Homo sapiens, UniProt P06241); assay type: functional
Tyrosine-protein kinase Fyn, sequence (P06241 whole entry): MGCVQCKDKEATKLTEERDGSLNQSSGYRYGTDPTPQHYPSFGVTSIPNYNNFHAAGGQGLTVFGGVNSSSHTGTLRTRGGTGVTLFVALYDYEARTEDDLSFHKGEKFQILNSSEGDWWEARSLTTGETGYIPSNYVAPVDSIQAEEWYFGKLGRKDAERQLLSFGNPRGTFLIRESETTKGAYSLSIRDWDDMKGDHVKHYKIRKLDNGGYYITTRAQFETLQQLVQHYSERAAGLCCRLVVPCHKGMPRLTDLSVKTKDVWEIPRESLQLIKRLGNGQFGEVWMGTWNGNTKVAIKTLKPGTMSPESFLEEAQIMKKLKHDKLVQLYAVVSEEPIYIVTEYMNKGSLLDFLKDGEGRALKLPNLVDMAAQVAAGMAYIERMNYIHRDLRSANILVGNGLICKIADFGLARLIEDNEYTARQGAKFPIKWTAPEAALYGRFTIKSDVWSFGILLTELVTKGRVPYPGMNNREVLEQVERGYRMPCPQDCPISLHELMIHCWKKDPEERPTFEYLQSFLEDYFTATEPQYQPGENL

[20] = target: Calcium/calmodulin-dependent protein kinase type 1 (Homo sapiens, UniProt Q14012); assay type: functional
[21] = target: Tyrosine-protein kinase SYK (Homo sapiens, UniProt P43405); assay type: functional
[22] = target: Insulin receptor (Homo sapiens, UniProt P06213); assay type: functional;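 also: insulin receptor kinase tested as one member of a kinome-wide kinase panel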
[23] = target: RAC-gamma serine/threonine-protein kinase (Homo sapiens, UniProt Q9Y243); assay type: functional
RAC-gamma serine/threonine-protein kinase, sequence (Q9Y243 whole entry): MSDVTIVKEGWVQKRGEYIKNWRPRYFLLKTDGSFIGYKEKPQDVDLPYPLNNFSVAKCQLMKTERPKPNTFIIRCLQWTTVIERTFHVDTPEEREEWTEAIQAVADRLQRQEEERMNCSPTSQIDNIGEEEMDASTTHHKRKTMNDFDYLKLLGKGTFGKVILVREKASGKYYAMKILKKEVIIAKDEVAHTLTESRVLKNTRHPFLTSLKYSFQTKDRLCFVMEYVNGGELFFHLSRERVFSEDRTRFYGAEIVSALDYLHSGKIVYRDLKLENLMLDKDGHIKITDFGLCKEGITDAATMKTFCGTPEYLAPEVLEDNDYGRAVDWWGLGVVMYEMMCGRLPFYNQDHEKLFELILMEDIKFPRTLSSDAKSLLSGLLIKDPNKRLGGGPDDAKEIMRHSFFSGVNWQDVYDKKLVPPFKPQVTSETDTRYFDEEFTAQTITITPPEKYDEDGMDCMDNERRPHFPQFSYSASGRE

[24] = target: Testis-specific serine/threonine-protein kinase 2 (Homo sapiens, UniProt Q96PF2); assay type: functional;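 also: part of the Navigating the Kinome panel, target entry STK22B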
[25] = target: Phosphorylase b kinase gamma catalytic chain, liver/testis isoform (Homo sapiens, UniProt P15735); assay type: functional;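 also: PHKG2 measured as one member of a kinome-wide kinase panel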
[26] = target: Serine/threonine-protein kinase Chk1 (Homo sapiens, UniProt O14757); assay type: functional;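 also: measured as one member of a kinome-wide kinase profiling panel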
[27] = target: MAP kinase-activated protein kinase 3 (Homo sapiens, UniProt Q16644); assay type: functional;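 also: value comes from a kinome-wide profiling panel in which MAPKAPK3 is one of the panel members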

Cc1c(NC(=O)C(C)OC(=O)c2ccc([N+](=O)[O-])s2)c(=O)n(-c2ccccc2)n1C (configuration not stated)
active: IC50 [1] 10.4 µM

COc1cc(Br)c(C(=O)c2nccc3cc(OC)c(OC)cc23)cc1OC
52.1 µM (not active): IC50 [3]
active: IC50 [2] 0.407 µM | IC50 [4] 2.99 µM

CC(N)C1CCC(C(=O)Nc2ccnc3[nH]ccc23)CC1 (configuration not stated)
inactive: Ki [5] > 6.31 µM | Ki [7] > 6.31 µM | Ki [8] > 2 µM | Ki [9] > 5.01 µM | Ki [11] > 7.94 µM | Ki [12] > 7.94 µM | Ki [13] > 2 µM | Ki [15] > 3.16 µM | Ki [17] > 3.98 µM | Ki [18] > 1.58 µM | Ki [19] > 3.98 µM | Ki [20] > 1.58 µM | Ki [21] > 1.58 µM | Ki [22] > 5.01 µM | Ki [24] > 1.58 µM | Ki [25] > 5.01 µM | Ki [26] > 7.94 µM | Ki [27] > 10 µM
active: Ki [6] 1.58 µM | Ki [10] 1 µM | Ki [14] 0.158 µM | Ki [16] 7.94 µM | Ki [23] 2.51 µM
